# From US20110190336A1, “AZABENZIMIDAZOLONES” (CARA THERAPEUTICS, INC., priority 2008, published 2011)
# Target: T1, human DP2 receptor (Homo sapiens, UniProt Q9Y5Y4)
# T1 construct: expressed in transfected cells; host or cells: CHO-K1 FLP-In (Invitrogen, catalog no. R758-07), stably transfected
# T1 sequence (Q9Y5Y4 1-395): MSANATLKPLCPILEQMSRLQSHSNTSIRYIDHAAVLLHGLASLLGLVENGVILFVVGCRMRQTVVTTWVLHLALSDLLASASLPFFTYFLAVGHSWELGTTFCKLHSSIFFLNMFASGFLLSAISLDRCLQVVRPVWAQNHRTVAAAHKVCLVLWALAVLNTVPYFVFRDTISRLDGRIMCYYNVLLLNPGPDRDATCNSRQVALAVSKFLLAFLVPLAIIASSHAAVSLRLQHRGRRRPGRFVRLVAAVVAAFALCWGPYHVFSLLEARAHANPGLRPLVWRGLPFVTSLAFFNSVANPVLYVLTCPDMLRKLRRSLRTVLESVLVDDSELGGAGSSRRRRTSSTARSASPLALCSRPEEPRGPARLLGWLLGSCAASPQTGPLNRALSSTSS
# Test: Prostaglandin D2 binding inhibition assay (scintillation proximity assay, 3H PGD2, membranes of transfected CHO cells)
# Details: SPA, 5.5 nM 3H PGD2, CHO-K1 FLP-In human DP2 membranes; upper limit determinable 30 μM; read-out: IC50 ranges for inhibition of PGD2 binding to human DP2
# Method: The ability of compounds to inhibit binding of prostaglandin D2 (PGD2) to the human DP2 receptor was measured using a scintillation proximity assay (SPA). Chinese Hamster Ovary FLP-In cell lines (CHO-K1 FLP-In, Invitrogen, catalog no. R758-07) were stably transfected with the human DP2 gene (Genebank: AY507142). Cell lines were grown in suspension in EX-CELL 302 CHO Serum-free medium (Sigma, catalog no. 14324C) supplemented with 1% Fetal Bovine Serum (Invitrogen no. 10099-141), 2 mM L-glutamine (Invitrogen, catalog no. 25030-081) and 0.5 mg/ml Hygromycin B (Invitrogen, catalog no. 10687-010). Cells were collected by centrifugation in a Beckman Coulter Allegra X-12R centrifuge at 150×g for 5 minutes at room temperature.
# Membranes from transfected cells were isolated for binding assays. Cell pellets containing approximately 2×10^9 cells were resuspended in 35 ml of cold membrane homogenization buffer (10 mM Tris (Sigma, catalog no. T2663), 1 mM EDTA (Fluka BioChemika no. 03690), and 70 μl of protease inhibitor cocktail (Sigma, catalog no. P8340)). Cells were homogenized with 30 strokes of a dounce homogenizer (Kontes, catalog no. 885303-0040), and the solution centrifuged at 200×g for 10 minutes. The supernatant was transferred to a 50 ml Oakridge tube (Beckman, catalog no. 357000) and centrifuged in a Beckman Coulter Avanti J-26×PI centrifuge with a JA30.50 rotor at 81,000×g for 1 hour at 15° C. The pellet was resuspended in membrane storage buffer (50 mM Tris (Sigma, catalog no. T2663), 2.5 mM EDTA (Fluka BioChemika no. 03690), 5 mM magnesium chloride (Sigma, catalog no. M1028), 100 mg/ml sucrose (Sigma, catalog no. 50389) and a 1:500 dilution of protease inhibitor cocktail (Sigma, catalog no. P8340)) and the total protein was quantitated using a BCA protein measurement kit (Pierce, catalog no. 23225). Aliquots were frozen at −80° C. until used. Compounds were tested for their ability to inhibit PGD2 binding to the purified membranes. 5 μg of the purified membranes, 0.25 mg of wheat germ agglutinin PVT SPA beads (GE Healthcare, catalog no. RPNQ0060) and 5.5 nM of ^3H PGD2 (PerkinElmer, catalog no. NET-616) were mixed in assay buffer ((50 mM Tris (Sigma, catalog no. T2663), 10 mM magnesium chloride (Sigma, catalog no. M1028), 100 mM sodium chloride (Sigma, catalog no. S6546) and 0.1% bovine serum albumin (Sigma, catalog no. A2153)). Using a Multidrop bulk dispenser, 75 μl of the assay mixture was dispensed in Optiplates (PerkinElmer, catalog no. 6007299) containing the compounds to be tested. After a 60 minute incubation period at room temperature, the plates were read on a PerkinElmer Topcount NXT HTS, and individual wells were quantitated as counts per minute (CPM). Data were expressed as a percent of the difference between the maximum and minimum responses. IC50 values (the concentration of compound producing 50% of the maximal response) were determined using a two-parameter non-linear regression algorithm analyzed using CambridgeSoft Bioassay software. Table 2 gives the range of IC50 values for claimed compounds in the binding assay.
row,Structure (SMILES),IC50 [µM]
1,"O=C(O)Cn1c(=O)n(C2CCN(S(=O)(=O)c3ccc(F)c(Cl)c3)CC2)c2ncccc21 [Compound 88, 2-(3-(1-(3-chloro-4-fluorophenyl-sulfonyl)piperidin-4-yl)-2-oxo-2,3-dihydro-1H-imidazo[4,5-b]pyridin-1-yl)acetic acid]",1 to 10
2,"O=C(O)Cn1c(=O)n(C2CCC(NS(=O)(=O)c3ccc(Cl)cc3Cl)CC2)c2ncccc21 (centres unmarked) [Compound 106, 2-(3-(4-(2,4-dichlorophenylsulfonamido)cyclohexyl)-2-oxo-2,3-dihydro-1H-imidazo[4,5-b]pyridin-1-yl)acetic acid]",1 to 10
3,"N#Cc1cccc(S(=O)(=O)N2CCC(n3c(=O)n(CC(=O)O)c4cccnc43)CC2)c1 [Compound 69, 2-(3-(1-(3-cyanophenylsuIfonyl)piperidin-4-yl)-2-oxo-2,3-dihydro-1H-imidazo[4,5-b]pyridin-1-yl)acetic acid]",1 to 10
4,"O=C(O)Cn1c(=O)n(C2CCN(S(=O)(=O)c3cccc4ccccc34)CC2)c2ncccc21 [Compound 32, 2-(3-(1-(naphthalen-1-ylsulfonyl)piperidin-4-yl)-2-oxo-2,3-dihydro-1H-imidazo[4,5-b]pyridin-1-yl)acetic acid]",1 to 10
5,"Cc1ccc(S(=O)(=O)NC2CCC(n3c(=O)n(CC(=O)O)c4cccnc43)CC2)c(F)c1 (centres unmarked) [Compound 107, 2-(3-(4-(2-fluoro-4-methylphenylsulfonamido)cyclohexyl)-2-oxo-2,3-dihydro-1H-imidazo[4,5-b]pyridin-1-yl)acetic acid]",1 to 10
6,"CC(C)Oc1ccc(S(=O)(=O)N2CCC(n3c(=O)n(CC(=O)O)c4cccnc43)CC2)cc1 [Compound 75, 2-(3-(1-(4-isopropoxyphenylsulfonyl)piperidin-4-yl)-2-oxo-2,3-dihydro-1H-imidazo[4,5-b]pyridin-1-yl)acetic acid]",> 30
7,"N#Cc1ccc(S(=O)(=O)N2CCC(n3c(=O)n(CC(=O)O)c4cccnc43)CC2)cc1 [Compound 61, 2-(3-(1-(4-cyanophenylsulfonyl)piperidin-4-yl)-2-oxo-2,3-dihydro-1H-imidazo[4,5-b]pyridin-1-yl)acetic acid]",1 to 10
8,"O=C(O)Cn1c(=O)n(C2CCN(S(=O)(=O)c3ccc(Cl)cc3F)CC2)c2ncc(F)cc21 [Compound 71, 2-(3-(1-(4-chloro-2-fluorophenyl-sulfonyl)piperidin-4-yl)-6-fluoro-2-oxo-2,3-dihydro-1H-imidazo[4,5-b]pyridin-1-yl)acetic acid]",1 to 10
9,"O=C(O)Cn1c(=O)n(C2CCN(S(=O)(=O)c3cc(Cl)c(F)cc3F)CC2)c2ncccc21 [Compound 86, 2-(3-(1-(5-chloro-2,4-difluorophenyl-sulfonyl)piperidin-4-yl)-2-oxo-2,3-dihydro-1H-imidazo[4,5-b]pyridin-1-yl)acetic acid]",< 1
10,"O=C(O)Cn1c(=O)n(C2CCN(S(=O)(=O)c3ccc(Br)cc3F)CC2)c2ncccc21 [Compound 87, 2-(3-(1-(4-bromo-2-fluorophenyl-sulfonyl)piperidin-4-yl)-2-oxo-2,3-dihydro-1H-imidazo[4,5-b]pyridin-1-yl)acetic acid]",< 1
11,"COc1ccccc1S(=O)(=O)N1CCC(n2c(=O)n(CC(=O)O)c3cccnc32)CC1 [Compound 97, 2-(3-(1-(2-methoxyphenylsulfonyl)piperidin-4-yl)-2-oxo-2,3-dihydro-1H-imidazo[4,5-b]pyridin-1-yl)acetic acid]",1 to 10
12,"Cc1noc(C)c1S(=O)(=O)N1CCC(n2c(=O)n(CC(=O)O)c3cccnc32)CC1 [Compound 54, 2-(3-(1-(3,5-dimethylisoxazol-4-ylsulfonyl)piperidin-4-yl)-2-oxo-2,3-dihydro-1H-imidazo[4,5-b]pyridin-1-yl)acetic acid]",> 30
13,"O=C(O)Cn1c(=O)n(C2CCC(NS(=O)(=O)c3ccc(F)cc3Cl)CC2)c2ncccc21 (centres unmarked) [Compound 105, 2-(3-(4-(2-chloro-4-fluorophenylsulfonamido)cyclohexyl)-2-oxo-2,3-dihydro-1H-imidazo[4,5-b]pyridin-1-yl)acetic acid]",1 to 10
14,"O=C(O)Cn1c(=O)n(C2CCN(S(=O)(=O)c3cc(F)c(Cl)cc3F)CC2)c2ncccc21 [Compound 91, 2-(3-(1-(4-chloro-2,5-difluoro-phenylsulfonyl)piperidin-4-yl)-2-oxo-2,3-dihydro-1H-imidazo[4,5-b]pyridin-1-yl)acetic acid]",< 1
15,"Cc1cc(F)ccc1S(=O)(=O)N1CCC(n2c(=O)n(CC(=O)O)c3c(C)ccnc32)CC1 [Compound 119, 2-(3-(1-(4-fluoro-2-methylphenylsulfonyl)piperidin-4-yl)-7-methyl-2-oxo-2,3-dihydro-1H-imidazo[4,5-b]pyridin-1-yl)acetic acid]",> 30
16,"O=C(O)Cn1c(=O)n(C2CCN(S(=O)(=O)c3cc(Cl)cc(Cl)c3)CC2)c2ncccc21 [Compound 84, 2-(3-(1-(3,5-dichlorophenyl-sulfonyl)piperidin-4-yl)-2-oxo-2,3-dihydro-1H-imidazo[4,5-b]pyridin-1-yl)acetic acid]",1 to 10
17,"Cc1ccnc2c1n(CC(=O)O)c(=O)n2C1CCN(S(=O)(=O)c2ccccc2Cl)CC1 [Compound 121, 2-(3-(1-(2-chlorophenylsulfonyl)piperidin-4-yl)-7-methyl-2-oxo-2,3-dihydro-1H-imidazo[4,5-b]pyridin-1-yl)acetic acid]",> 30
18,"Cc1ccc(S(=O)(=O)N2CCC(n3c(=O)n(CC(=O)O)c4c(C)ccnc43)CC2)c(F)c1 [Compound 118, 2-(3-(1-(2-fluoro-4-methylphenylsulfonyl)piperidin-4-yl)-7-methyl-2-oxo-2,3-dihydro-1H-imidazo[4,5-b]pyridin-1-yl)acetic acid]",> 30
19,"CS(=O)(=O)c1cccc(S(=O)(=O)N2CCC(n3c(=O)n(CC(=O)O)c4cccnc43)CC2)c1 [Compound 66, 2-(3-(1-(3-(methylsulfonyl)phenyl-sulfonyl)piperidin-4-yl)-2-oxo-2,3-dihydro-1H-imidazo[4,5-b]pyridin-1-yl)acetic acid]",1 to 10
20,"O=C(O)Cn1c(=O)n(C2CCN(S(=O)(=O)c3ccc(Cl)cc3Cl)CC2)c2ccncc21 [Compound 142, 2-(1-(1-(2,4-dichlorophenylsulfonyl)piperidin-4-yl)-2-oxo-1H-imidazo[4,5-c]pyridin-3(2H)-yl)acetic acid]",> 30
21,"O=C(O)Cn1c(=O)n(C2CCN(S(=O)(=O)c3cccnc3)CC2)c2ncccc21 [Compound 68, 2-(2-oxo-3-(1-(pyridin-3-ylsulfonyl)piperidin-4-yl)-2,3-dihydro-1H-imidazo[4,5-b]pyridin-1-yl)acetic acid]",10 to 30
22,"Cc1ccc(CS(=O)(=O)N2CCC(n3c(=O)n(CC(=O)O)c4cccnc43)CC2)cc1 [Compound 56, 2-(3-(1-(4-methylbenzylsulfonyl)piperidin-4-yl)-2-oxo-2,3-dihydro-1H-imidazo[4,5-b]pyridin-1-yl)acetic acid]",10 to 30
23,"CC(C)S(=O)(=O)N1CCC(n2c(=O)n(CC(=O)O)c3cccnc32)CC1 [Compound 52, 2-(3-(1-(isopropylsulfonyl)piperidin-4-yl)-2-oxo-2,3-dihydro-1H-imidazo[4,5-b]pyridin-1-yl)acetic acid]",1 to 10
